Laboratory results reported in article PMC12596218 (Journal of Lipid Research, 2025).
“And” between values parts separate entries of the source, which are not always exact repeats. Identical values can stand only once. Like-named read-outs stand apart in the source and are kept apart here.

Assays:
[1] = molecular target: T1, OATP2B1 (Homo sapiens, UniProt O94956); test: [3H]E1S transport inhibition assay in OATP2B1-HEK293 cells; assay type: cell-based; conditions: 200 nM [3H]E1S, 10 min; two independent experiments
T1 construct: stably transfected with the full open reading frames of human NTCP, ASBT, SOAT, OATP1B1, OATP1B3, OATP2B1, and murine Asbt (mAsbt); expressed in transfected cells; host or cells: HEK293, stably transfected (OATP2B1-HEK), tetracycline-induced
T1 sequence (O94956 1-709): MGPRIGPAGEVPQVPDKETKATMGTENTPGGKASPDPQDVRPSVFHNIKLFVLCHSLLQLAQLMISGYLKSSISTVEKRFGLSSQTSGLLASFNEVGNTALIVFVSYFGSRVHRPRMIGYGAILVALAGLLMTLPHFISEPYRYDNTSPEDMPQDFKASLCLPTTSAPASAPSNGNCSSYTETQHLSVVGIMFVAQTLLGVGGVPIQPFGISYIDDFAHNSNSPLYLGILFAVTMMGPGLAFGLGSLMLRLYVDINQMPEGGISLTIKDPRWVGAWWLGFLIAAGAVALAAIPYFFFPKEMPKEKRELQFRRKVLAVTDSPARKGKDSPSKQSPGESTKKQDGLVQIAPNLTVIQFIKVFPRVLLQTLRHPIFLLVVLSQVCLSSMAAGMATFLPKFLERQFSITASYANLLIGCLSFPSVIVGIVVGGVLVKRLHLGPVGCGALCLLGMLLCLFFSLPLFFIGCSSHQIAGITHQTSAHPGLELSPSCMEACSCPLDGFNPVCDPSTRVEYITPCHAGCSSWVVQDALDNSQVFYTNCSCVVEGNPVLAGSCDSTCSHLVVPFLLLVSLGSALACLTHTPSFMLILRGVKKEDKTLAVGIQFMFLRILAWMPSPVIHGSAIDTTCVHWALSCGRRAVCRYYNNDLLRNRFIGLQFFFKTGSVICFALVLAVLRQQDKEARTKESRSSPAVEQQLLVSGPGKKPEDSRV
Source text: (§1) Human embryonic kidney HEK293 cells, stably transfected with the full open reading frames of human NTCP, ASBT, SOAT, OATP1B1, OATP1B3, OATP2B1, and murine Asbt (mAsbt) were used as reported ([18], [20], [21], [22], [23]). The NTCP, ASBT, and mAsbt constructs were C-terminally tagged with the FLAG epitope, and the SOAT construct was C-terminally tagged with green fluorescent protein. Non-transfected Flp-In HEK293 cells (Thermo Fisher Scientific) served as the control. All cell lines were maintained at 37°C, 5% CO2 and 95% humidity in DMEM/F-12 medium (Thermo Fisher Scientific) supplemented with 10% fetal calf serum (Sigma-Aldrich), 4 mM L-glutamine (PAA) and penicillin/streptomycin (PAA). Expression of the respective carrier protein was induced by tetracycline treatment at 1 μg/ml (Carl Roth GmbH + Co. KG).
Cells were seeded onto poly-L-lysine-coated 96-well plates, induced with 1 μg/ml tetracycline, and grown to confluence over 72 h at 37°C. Then, cells were washed with tempered (37°C) phosphate-buffered saline (PBS, containing 137.0 mM NaCl, 2.7 mM KCl, 1.5 mM KH2PO4, and 7.3 mM Na2HPO4, at pH 7.4) and preincubated with 80 μl sodium transport buffer (STB, containing 142.9 mM NaCl, 4.7 mM KCl, 1.2 mM MgSO4, 1.2 mM KH2PO4, 1.8 mM CaCl2, and 20.0 mM HEPES, at pH 7.4) for 5 min at 37°C. For inhibition studies, the medium was replaced by 80 μl STB containing the respective inhibitor or solvent alone and cells were further incubated for 5 min at 37°C. Transport experiments were started by adding 20 μl of a 5-fold concentrated substrate solution (solved in STB). For transport experiments under sodium-free conditions the same buffer composition was used as for STB, but sodium chloride was substituted with equimolar concentrations of choline chloride as previously reported ([20], [24]). Transport experiments were stopped by washing twice with ice-cold PBS and the plates were kept cool on ice until adding the lysis buffer [1% sodium dodecyl sulfate (SDS) and 1 N NaOH]. Then, the cell-associated radioactivity of the respective tritium-labeled substrate or ligand was quantified by liquid scintillation counting using MicroScint-20 scintillation cocktail (Revvity) in a Packard Microplate Scintillation Counter TopCount NXT (Packard Instrument Company). For IC50 transport inhibition measurements, the mean uptake values measured in non-carrier-expressing HEK293 control cells were defined as 0% uptake control and were subtracted from all other values. Values from cells without inhibitor and solvent alone were set to 100%. Finally, all net transport data were expressed as uptake or binding as % of control. All transport or inhibition graphs were generated with GraphPad Prism 6 (GraphPad). Determination of half maximal inhibitory concentrations (IC50) was done by nonlinear regression analysis using the equation log (inhibitor) versus response—variable slope settings. All data points of the IC50 curves represent means ± SD of quadruplicate determinations. For Km measurements, BS uptake in the absence of sodium was regarded as carrier-independent unspecific uptake and was subtracted from the transport rates in the presence of sodium to obtain carrier-specific uptake rates (indicated as dashed lines). From the specific uptake rates, Michaelis Menten Km values were calculated by non-linear regression analysis.

[2] = test system: ASBT; conditions: cited from earlier work; for IC50: read-out: IC50 ASBT inhibition
[3] = molecular target: T2, NTCP (Homo sapiens, UniProt Q14973); test: [3H]DHEAS transport inhibition assay in NTCP-HEK293 cells; assay type: cell-based; conditions: 1 μM [3H]DHEAS, 10 min; two independent experiments; read-out: IC50 NTCP [3H]DHEAS uptake
T2 construct: stably transfected with the full open reading frames of human NTCP, ASBT, SOAT, OATP1B1, OATP1B3, OATP2B1, and murine Asbt (mAsbt); expressed in transfected cells; host or cells: HEK293 (Flp-In), stably transfected, tetracycline-induced
T2 sequence (Q14973 1-349): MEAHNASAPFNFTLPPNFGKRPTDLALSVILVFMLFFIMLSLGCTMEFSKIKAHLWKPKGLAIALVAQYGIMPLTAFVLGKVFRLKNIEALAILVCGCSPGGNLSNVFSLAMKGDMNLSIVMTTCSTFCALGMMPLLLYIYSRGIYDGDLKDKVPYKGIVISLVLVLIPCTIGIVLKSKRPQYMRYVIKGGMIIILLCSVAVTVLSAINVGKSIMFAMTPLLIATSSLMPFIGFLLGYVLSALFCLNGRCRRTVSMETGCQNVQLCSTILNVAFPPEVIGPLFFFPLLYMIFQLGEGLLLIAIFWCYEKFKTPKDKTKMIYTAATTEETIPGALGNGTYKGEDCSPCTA
Source text: as §1, with “Expression of the respective carrier protein was induced by tetracycline treatment at 1 μg/ml (Carl Roth GmbH + Co. KG).” left out
(§2) Cells were seeded onto poly-L-lysine-coated 96-well plates, induced with 1 μg/ml tetracycline, and grown to confluence over 72 h at 37°C. […] Then, the cell-associated radioactivity of the respective tritium-labeled substrate or ligand was quantified by liquid scintillation counting using MicroScint-20 scintillation cocktail (Revvity) in a Packard Microplate Scintillation Counter TopCount NXT (Packard Instrument Company). […] Finally, all net transport data were expressed as uptake or binding as % of control. […] From the specific uptake rates, Michaelis Menten Km values were calculated by non-linear regression analysis.

[4] = molecular target: T2, NTCP; test: [3H]preS1 peptide binding to NTCP-HEK293 cells; conditions: 5 nM [3H]preS1; two independent experiments
Source text: as §1, with “Expression of the respective carrier protein was induced by tetracycline treatment at 1 μg/ml (Carl Roth GmbH + Co. KG).” left out
as §2

## CCCCC1(CCCC)CS(=O)(=O)c2ccc(N(C)C)cc2[C@@H](c2ccc(OCc3ccc(C[N+]45CCN(CC4)CC5)cc3)cc2)[C@H]1O [maralixibat]
[1]
  IC50: 7.5 µM and 6 µM
[2]; ASBT expressed in baby hamster kidney H-14 cell line, ref FDA NDA 214662 Livmarli
  IC50: 0.00028 µM

## CCCCC1(CCCC)CN(c2ccccc2)c2cc(SC)c(OCC(=O)N[C@@H](C(=O)N[C@@H](CC)C(=O)O)c3ccc(O)cc3)cc2S(=O)(=O)N1 [odevixibat]
[3]
  IC50: 8.7 µM and 5.5 µM
[1]
  IC50: 5.1 µM and 4 µM
[4]
  IC50: 144 µM and 15.9 µM
[2]; ASBT-expressing HEK293 cells, ref EMA EPAR Risk management plan for odevixibat
  IC50: 0.00013 µM

## CCCC[C@]1(CC)CS(=O)(=O)c2cc(CNC(CC(=O)O)CC(=O)O)c(OC)cc2[C@@H](c2ccccc2)N1 [linerixibat]
[1]
  IC50: > 10 µM and 26.1 µM and 22.5 µM

## CCCCC1(CCCC)CS(=O)(=O)c2ccc(N(C)C)cc2[C@@H](c2ccc(OCCCC[N+]34CCN(CC3)CC4)cc2)[C@H]1O [SC-435]
[1]
  IC50: > 10 µM and 40.3 µM and 36.5 µM

## CCCCC1(CCCC)CN(c2ccccc2)c2cc(SC)c(OCC(=O)N[C@@H](C(=O)NCC(=O)O)c3ccccc3)cc2S(=O)(=O)C1 [elobixibat]
[3]
  IC50: 11.7 µM and 11.1 µM
[1]
  IC50: 3.9 µM and 3.6 µM
[4]
  IC50: 147 µM and 36 µM
[2]; ref PMDA Goofice Report on the Deliberation Results
  IC50: 0.00053 µM
[2]; reported by the PMDA, ref PMDA
  IC50 ratio for ASBT versus NTCP inhibition: 0.0022
